{"source": "patent US8921362B2", "about": "“6,7-dialkoxy quinazoline derivatives and methods of treating drug resistant and other tumors” (Natco Pharma Limited, priority 2008, dated 2014)", "experiment_in_all_cases": "KinomeScan", "assay_type_in_all_cases": "binding", "details_in_all_cases": "read-out: % Ctrl @ 10000 nM", "key": {"EPHB1": {"biological_target": "T1, EPHB1 (Homo sapiens, UniProt P54762)", "T1 construct": "purchased Ambit Biosciences Corp; host or cells: T7 phage in E. coli host derived from BL21", "procedure,_shortened": "(§1)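 Lysates from phage-infected E. coli (32° C., shaking until lysis) were filtered and exposed to biotin-blocked ligand beads together with test compound. Eluted phage was counted by quantitative PCR.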"}, "MLK1": {"biological_target": "T2, MLK1 (Homo sapiens, UniProt P80192)", "T2 construct": "host or cells: T7 phage grown in E. coli host derived from BL21", "procedure,_shortened": "as §1"}, "DMPK2": {"biological_target": "T3, DMPK2 (Homo sapiens, UniProt Q6DT37)", "T3 construct": "purchased Ambit Biosciences Corp (KinomeScan); host or cells: T7 phage in E. coli host derived from BL21", "procedure,_shortened": "as §1"}, "IKK-epsilon": {"biological_target": "T4, IKK-epsilon (Homo sapiens, UniProt Q14164)", "T4 construct": "host or cells: T7 phage grown in E. coli host derived from BL21", "procedure,_shortened": "as §1"}, "MST1R": {"biological_target": "T5, MST1R (Homo sapiens, UniProt Q04912)", "T5 construct": "host or cells: T7 phage grown in E. coli host derived from BL21", "procedure,_shortened": "as §1"}, "PYK2": {"biological_target": "T6, PYK2 (Homo sapiens, UniProt Q14289)", "T6 construct": "host or cells: E. coli host derived from BL21, T7 phage display", "procedure,_shortened": "as §1"}, "RET(V804M)": {"biological_target": "T7, RET(V804M) (Homo sapiens, UniProt P07949, V804M)", "T7 construct": "host or cells: E. coli host derived from BL21, T7 phage display", "T7 sequence (P07949 29-1114 V804M)": "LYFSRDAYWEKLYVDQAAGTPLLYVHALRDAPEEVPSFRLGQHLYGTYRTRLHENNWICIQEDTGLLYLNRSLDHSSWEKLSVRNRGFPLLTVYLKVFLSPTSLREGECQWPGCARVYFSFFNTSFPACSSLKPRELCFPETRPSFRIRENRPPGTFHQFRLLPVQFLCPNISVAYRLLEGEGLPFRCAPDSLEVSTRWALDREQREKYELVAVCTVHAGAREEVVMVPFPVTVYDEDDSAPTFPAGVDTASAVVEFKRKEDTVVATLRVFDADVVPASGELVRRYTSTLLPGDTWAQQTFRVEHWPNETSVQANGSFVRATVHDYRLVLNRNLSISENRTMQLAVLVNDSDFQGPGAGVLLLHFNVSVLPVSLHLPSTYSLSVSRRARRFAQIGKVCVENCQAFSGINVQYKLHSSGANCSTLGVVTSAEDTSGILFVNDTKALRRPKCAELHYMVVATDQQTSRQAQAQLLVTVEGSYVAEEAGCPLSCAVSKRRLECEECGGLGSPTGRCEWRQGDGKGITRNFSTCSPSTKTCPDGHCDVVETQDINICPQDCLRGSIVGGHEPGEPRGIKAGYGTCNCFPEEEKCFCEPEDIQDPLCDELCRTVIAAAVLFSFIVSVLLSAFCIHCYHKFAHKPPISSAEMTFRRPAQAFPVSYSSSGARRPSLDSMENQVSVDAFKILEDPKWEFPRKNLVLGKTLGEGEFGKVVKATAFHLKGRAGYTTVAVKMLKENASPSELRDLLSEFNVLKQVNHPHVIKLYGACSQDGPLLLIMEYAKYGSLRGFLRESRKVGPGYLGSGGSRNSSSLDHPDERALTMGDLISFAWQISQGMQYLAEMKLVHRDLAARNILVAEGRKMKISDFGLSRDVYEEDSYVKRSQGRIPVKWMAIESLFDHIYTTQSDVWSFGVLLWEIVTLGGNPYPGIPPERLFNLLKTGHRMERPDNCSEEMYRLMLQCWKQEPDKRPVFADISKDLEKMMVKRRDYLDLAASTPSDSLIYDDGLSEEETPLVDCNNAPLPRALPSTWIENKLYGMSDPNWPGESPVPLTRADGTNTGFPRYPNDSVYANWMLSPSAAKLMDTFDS", "procedure,_shortened": "as §1"}, "PDGFRA": {"biological_target": "T8, PDGFRA (Homo sapiens, UniProt P16234)", "T8 construct": "host or cells: E. coli host derived from BL21, infected with T7 phage", "procedure,_shortened": "as §1"}, "EPHA6": {"biological_target": "T9, EPHA6 (Homo sapiens, UniProt Q9UF33)", "T9 construct": "purchased Ambit Biosciences Corp; host or cells: T7 phage in E. coli host derived from BL21", "procedure,_shortened": "as §1"}, "PRKD3": {"biological_target": "T10, PRKD3 (Homo sapiens, UniProt O94806)", "T10 construct": "host or cells: T7 phage in E. coli host derived from BL21", "procedure,_shortened": "as §1"}, "YSK1": {"biological_target": "T11, YSK1 (Homo sapiens, UniProt O00506)", "T11 construct": "host or cells: T7 phage grown in an E. coli host derived from BL21", "procedure,_shortened": "as §1"}, "SgK110": {"biological_target": "T12, SgK110 (Homo sapiens, UniProt P0C264)", "T12 construct": "host or cells: T7 phage grown in E. coli (BL21-derived)", "procedure,_shortened": "as §1"}, "IGF1R": {"biological_target": "T13, IGF1R (Homo sapiens, UniProt P08069)", "T13 construct": "host or cells: T7 phage grown in E. coli host derived from BL21", "procedure,_shortened": "as §1"}, "ROS1": {"biological_target": "T14, ROS1 (Homo sapiens, UniProt P08922)", "T14 construct": "host or cells: E. coli host derived from BL21, T7 phage display", "procedure,_shortened": "as §1"}, "NLK": {"biological_target": "T15, NLK (Homo sapiens, UniProt Q9UBE8)", "T15 construct": "host or cells: E. coli host derived from BL21, infected with T7 phage", "procedure,_shortened": "as §1"}, "PCTK1": {"biological_target": "T16, PCTK1 (Homo sapiens, UniProt Q00536)", "T16 construct": "host or cells: E. coli host derived from BL21, infected with T7 phage", "procedure,_shortened": "as §1"}, "MARK1": {"biological_target": "T17, MARK1 (Homo sapiens, UniProt Q9P0L2)", "T17 construct": "host or cells: E. coli host derived from the BL21 strain, infected with T7 phage", "T17 sequence (Q9P0L2 whole entry)": "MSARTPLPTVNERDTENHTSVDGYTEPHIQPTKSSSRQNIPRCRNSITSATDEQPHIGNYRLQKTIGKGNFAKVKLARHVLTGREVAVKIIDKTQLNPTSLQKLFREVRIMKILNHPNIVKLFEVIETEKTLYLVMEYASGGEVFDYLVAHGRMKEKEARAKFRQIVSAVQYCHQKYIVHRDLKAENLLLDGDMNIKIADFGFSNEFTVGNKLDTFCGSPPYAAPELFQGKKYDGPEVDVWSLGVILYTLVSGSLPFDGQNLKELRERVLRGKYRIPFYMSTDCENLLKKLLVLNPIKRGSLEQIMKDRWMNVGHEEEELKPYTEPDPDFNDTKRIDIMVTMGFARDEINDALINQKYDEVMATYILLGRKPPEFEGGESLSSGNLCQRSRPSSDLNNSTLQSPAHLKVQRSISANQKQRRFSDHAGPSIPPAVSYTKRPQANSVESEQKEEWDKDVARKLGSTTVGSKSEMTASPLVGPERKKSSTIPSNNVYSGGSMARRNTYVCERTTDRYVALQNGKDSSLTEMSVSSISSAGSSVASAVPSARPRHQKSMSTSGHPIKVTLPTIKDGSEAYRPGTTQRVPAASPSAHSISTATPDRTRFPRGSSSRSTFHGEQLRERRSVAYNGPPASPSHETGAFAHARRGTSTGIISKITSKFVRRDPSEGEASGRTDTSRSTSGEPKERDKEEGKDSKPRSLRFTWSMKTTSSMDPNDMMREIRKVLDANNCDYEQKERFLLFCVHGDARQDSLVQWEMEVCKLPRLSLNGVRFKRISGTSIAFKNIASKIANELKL", "procedure,_shortened": "as §1"}, "PAK7": {"biological_target": "T18, PAK7 (Homo sapiens, UniProt Q9P286)", "T18 construct": "host or cells: E. coli host derived from BL21, infected with T7 phage", "procedure,_shortened": "as §1"}, "ANKK1": {"biological_target": "T19, ANKK1 (Homo sapiens, UniProt Q8NFD2)", "T19 construct": "host or cells: E. coli (BL21-derived), T7 phage lysate", "procedure,_shortened": "as §1"}, "MLCK": {"biological_target": "T20, MLCK (Homo sapiens, UniProt Q32MK0)", "T20 construct": "host or cells: T7 phage grown in E. coli host derived from BL21", "T20 sequence (Q32MK0 whole entry)": "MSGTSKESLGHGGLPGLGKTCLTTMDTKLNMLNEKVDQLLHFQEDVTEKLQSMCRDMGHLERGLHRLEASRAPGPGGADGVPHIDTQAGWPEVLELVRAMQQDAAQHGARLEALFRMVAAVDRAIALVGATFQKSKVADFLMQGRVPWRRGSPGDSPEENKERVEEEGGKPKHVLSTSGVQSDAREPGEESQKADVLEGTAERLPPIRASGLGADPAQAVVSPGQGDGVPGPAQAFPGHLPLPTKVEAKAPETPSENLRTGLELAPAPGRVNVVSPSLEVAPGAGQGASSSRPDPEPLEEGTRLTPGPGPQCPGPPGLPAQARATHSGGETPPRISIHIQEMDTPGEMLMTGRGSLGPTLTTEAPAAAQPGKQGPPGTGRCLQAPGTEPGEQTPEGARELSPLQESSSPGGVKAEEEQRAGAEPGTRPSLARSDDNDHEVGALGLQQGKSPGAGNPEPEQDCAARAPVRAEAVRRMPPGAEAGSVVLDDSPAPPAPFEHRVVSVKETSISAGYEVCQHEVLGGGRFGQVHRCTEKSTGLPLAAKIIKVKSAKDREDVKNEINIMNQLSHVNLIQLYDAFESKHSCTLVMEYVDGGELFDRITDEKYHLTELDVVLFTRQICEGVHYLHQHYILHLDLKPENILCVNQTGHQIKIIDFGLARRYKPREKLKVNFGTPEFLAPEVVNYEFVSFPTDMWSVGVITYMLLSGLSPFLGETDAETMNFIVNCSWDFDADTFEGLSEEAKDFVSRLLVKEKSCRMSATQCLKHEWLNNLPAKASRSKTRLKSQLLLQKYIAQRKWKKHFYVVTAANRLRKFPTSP", "procedure,_shortened": "as §1"}, "NEK5": {"biological_target": "T21, NEK5 (Homo sapiens, UniProt Q6P3R8)", "T21 construct": "host or cells: T7 phage grown in E. coli host derived from BL21", "procedure,_shortened": "as §1"}, "SNARK": {"biological_target": "T22, SNARK (Homo sapiens, UniProt Q9H093)", "T22 construct": "host or cells: T7 phage grown in E. coli (BL21-derived)", "procedure,_shortened": "as §1"}, "LOK": {"biological_target": "T23, LOK (Homo sapiens, UniProt O94804)", "T23 construct": "host or cells: E. coli host derived from the BL21 strain, infected with T7 phage", "procedure,_shortened": "as §1"}, "FRK": {"biological_target": "T24, FRK (Homo sapiens, UniProt P42685)", "T24 construct": "host or cells: T7 phage in E. coli host derived from BL21", "T24 sequence (P42685 whole entry)": "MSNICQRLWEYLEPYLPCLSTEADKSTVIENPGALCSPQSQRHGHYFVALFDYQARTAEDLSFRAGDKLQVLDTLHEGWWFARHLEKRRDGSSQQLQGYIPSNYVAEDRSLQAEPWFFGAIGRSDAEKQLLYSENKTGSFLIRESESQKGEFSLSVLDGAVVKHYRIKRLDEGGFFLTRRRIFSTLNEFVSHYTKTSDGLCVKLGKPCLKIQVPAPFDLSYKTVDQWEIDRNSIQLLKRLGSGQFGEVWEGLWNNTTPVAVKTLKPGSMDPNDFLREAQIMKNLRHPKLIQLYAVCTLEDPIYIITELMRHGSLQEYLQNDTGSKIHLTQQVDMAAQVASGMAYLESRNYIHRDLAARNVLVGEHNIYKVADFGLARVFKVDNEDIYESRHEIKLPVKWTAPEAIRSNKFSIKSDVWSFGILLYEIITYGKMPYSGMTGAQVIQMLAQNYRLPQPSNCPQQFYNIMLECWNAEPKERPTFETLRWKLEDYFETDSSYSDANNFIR", "procedure,_shortened": "as §1"}, "ULK2": {"biological_target": "T25, ULK2 (Homo sapiens, UniProt Q8IYT8)", "T25 construct": "host or cells: E. coli host derived from BL21, T7 phage", "T25 sequence (Q8IYT8 whole entry)": "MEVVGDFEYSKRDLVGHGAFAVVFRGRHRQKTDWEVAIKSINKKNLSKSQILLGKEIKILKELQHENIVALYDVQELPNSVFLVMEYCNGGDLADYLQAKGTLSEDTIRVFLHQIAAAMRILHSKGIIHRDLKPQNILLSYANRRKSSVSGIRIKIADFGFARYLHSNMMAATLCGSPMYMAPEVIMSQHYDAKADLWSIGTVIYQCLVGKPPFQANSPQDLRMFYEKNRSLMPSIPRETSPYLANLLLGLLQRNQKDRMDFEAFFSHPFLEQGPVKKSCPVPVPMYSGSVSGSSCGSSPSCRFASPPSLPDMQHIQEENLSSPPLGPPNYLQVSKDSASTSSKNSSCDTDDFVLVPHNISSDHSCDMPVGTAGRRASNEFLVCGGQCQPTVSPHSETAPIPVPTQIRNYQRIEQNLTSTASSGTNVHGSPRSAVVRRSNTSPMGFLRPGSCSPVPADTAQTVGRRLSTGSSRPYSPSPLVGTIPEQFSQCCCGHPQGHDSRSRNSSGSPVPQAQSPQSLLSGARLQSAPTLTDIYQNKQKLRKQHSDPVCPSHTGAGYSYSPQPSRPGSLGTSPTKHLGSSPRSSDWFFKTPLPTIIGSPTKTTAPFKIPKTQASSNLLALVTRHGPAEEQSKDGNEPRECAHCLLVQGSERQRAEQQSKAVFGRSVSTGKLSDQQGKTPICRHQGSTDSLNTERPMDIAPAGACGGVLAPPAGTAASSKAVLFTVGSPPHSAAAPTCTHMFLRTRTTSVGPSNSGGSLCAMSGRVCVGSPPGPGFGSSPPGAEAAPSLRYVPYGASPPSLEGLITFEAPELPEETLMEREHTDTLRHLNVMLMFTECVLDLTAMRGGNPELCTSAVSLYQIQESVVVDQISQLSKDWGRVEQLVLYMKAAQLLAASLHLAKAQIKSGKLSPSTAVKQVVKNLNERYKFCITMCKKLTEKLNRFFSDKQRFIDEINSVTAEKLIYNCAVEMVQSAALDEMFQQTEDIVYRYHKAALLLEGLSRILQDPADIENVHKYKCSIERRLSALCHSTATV", "procedure,_shortened": "as §1"}, "WEE1": {"biological_target": "T26, WEE1 (Homo sapiens, UniProt P30291)", "T26 construct": "host or cells: E. coli host derived from BL21, T7 phage", "T26 sequence (P30291 whole entry)": "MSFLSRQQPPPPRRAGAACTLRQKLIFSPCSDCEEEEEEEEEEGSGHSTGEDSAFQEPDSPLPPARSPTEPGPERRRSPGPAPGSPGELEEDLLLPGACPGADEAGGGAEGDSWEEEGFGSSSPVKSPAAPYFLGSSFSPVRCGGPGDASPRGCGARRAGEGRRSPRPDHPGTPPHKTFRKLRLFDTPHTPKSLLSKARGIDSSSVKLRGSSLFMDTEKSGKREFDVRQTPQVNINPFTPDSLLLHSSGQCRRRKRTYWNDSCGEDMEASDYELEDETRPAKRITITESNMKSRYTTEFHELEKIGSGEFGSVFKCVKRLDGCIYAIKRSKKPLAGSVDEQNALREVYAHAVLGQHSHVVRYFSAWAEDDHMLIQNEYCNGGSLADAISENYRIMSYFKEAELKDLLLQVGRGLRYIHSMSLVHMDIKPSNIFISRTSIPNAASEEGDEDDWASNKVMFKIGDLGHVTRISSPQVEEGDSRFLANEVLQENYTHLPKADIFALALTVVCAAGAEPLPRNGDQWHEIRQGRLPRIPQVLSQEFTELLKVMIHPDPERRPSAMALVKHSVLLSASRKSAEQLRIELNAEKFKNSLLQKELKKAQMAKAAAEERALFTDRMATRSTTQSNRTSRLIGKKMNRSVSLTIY", "procedure,_shortened": "as §1"}, "TEC": {"biological_target": "T27, TEC (Homo sapiens, UniProt P42680)", "T27 construct": "host or cells: T7 phage grown in E. coli (BL21-derived)", "procedure,_shortened": "as §1"}, "MELK": {"biological_target": "T28, MELK (Homo sapiens, UniProt Q14680)", "T28 construct": "host or cells: E. coli host derived from the BL21 strain, infected with T7 phage", "procedure,_shortened": "as §1"}, "CAMKK2": {"biological_target": "T29, CAMKK2 (Homo sapiens, UniProt Q96RR4)", "T29 construct": "host or cells: T7 phage in E. coli host derived from BL21", "procedure,_shortened": "as §1"}, "PIM3": {"biological_target": "T30, PIM3 (Homo sapiens, UniProt Q86V86)", "T30 construct": "host or cells: T7 phage in E. coli host derived from BL21", "procedure,_shortened": "as §1"}, "CSNK2A2": {"biological_target": "T31, CSNK2A2 (Homo sapiens, UniProt P19784)", "T31 construct": "purchased Ambit Biosciences Corp (KinomeScan); host or cells: T7 phage in E. coli host derived from BL21", "procedure,_shortened": "as §1"}, "PRKG2": {"biological_target": "T32, PRKG2 (Homo sapiens, UniProt Q13237)", "T32 construct": "host or cells: T7 phage in E. coli host derived from BL21", "procedure,_shortened": "as §1"}, "DDR1": {"biological_target": "T33, DDR1 (Homo sapiens, UniProt Q08345)", "T33 construct": "purchased Ambit Biosciences Corp (KinomeScan); host or cells: T7 phage in E. coli host derived from BL21", "procedure,_shortened": "as §1"}, "CSNK1G2": {"biological_target": "T34, CSNK1G2 (Homo sapiens, UniProt P78368)", "T34 construct": "purchased Ambit Biosciences Corp (KinomeScan); host or cells: T7 phage in E. coli host derived from BL21", "procedure,_shortened": "as §1"}}}
{"compound": "C#Cc1cccc(Nc2ncnc3cc(OC)c(OCCCN4CCOCC4)cc23)c1", "note": "[NRC-2694, N-(3-ethynylphenyl)-7-methoxy-6-[3-(4-morpholinyl)propoxy]-4-quinazolinamine]", "values": [{"measurement": "remaining binding at 10 µM", "setting": "EPHB1", "result": 72, "unit": "%"}, {"measurement": "remaining binding at 10 µM", "setting": "MLK1", "result": 100, "unit": "%"}, {"measurement": "remaining binding at 10 µM", "setting": "DMPK2", "result": 61, "unit": "%"}, {"measurement": "remaining binding at 10 µM", "setting": "IKK-epsilon", "result": 75, "unit": "%"}, {"measurement": "remaining binding at 10 µM", "setting": "MST1R", "result": 94, "unit": "%"}, {"measurement": "remaining binding at 10 µM", "setting": "PYK2", "result": 71, "unit": "%"}, {"measurement": "remaining binding at 10 µM", "setting": "RET(V804M)", "result": 100, "unit": "%"}, {"measurement": "remaining binding at 10 µM", "setting": "PDGFRA", "result": 50, "unit": "%"}, {"measurement": "remaining binding at 10 µM", "setting": "EPHA6", "result": 25, "unit": "%"}, {"measurement": "remaining binding at 10 µM", "setting": "PRKD3", "result": 7.2, "unit": "%"}, {"measurement": "remaining binding at 10 µM", "setting": "YSK1", "result": 69, "unit": "%"}, {"measurement": "remaining binding at 10 µM", "setting": "SgK110", "result": 83, "unit": "%"}, {"measurement": "remaining binding at 10 µM", "setting": "IGF1R", "result": 74, "unit": "%"}, {"measurement": "remaining binding at 10 µM", "setting": "ROS1", "result": 46, "unit": "%"}, {"measurement": "remaining binding at 10 µM", "setting": "NLK", "result": 55, "unit": "%"}, {"measurement": "remaining binding at 10 µM", "setting": "PCTK1", "result": 100, "unit": "%"}, {"measurement": "remaining binding at 10 µM", "setting": "MARK1", "result": 56, "unit": "%"}, {"measurement": "remaining binding at 10 µM", "setting": "PAK7", "result": 63, "unit": "%"}, {"measurement": "remaining binding at 10 µM", "setting": "ANKK1", "result": 73, "unit": "%"}, {"measurement": "remaining binding at 10 µM", "setting": "MLCK", "result": 77, "unit": "%"}, {"measurement": "remaining binding at 10 µM", "setting": "NEK5", "result": 94, "unit": "%"}, {"measurement": "remaining binding at 10 µM", "setting": "SNARK", "result": 19, "unit": "%"}, {"measurement": "remaining binding at 10 µM", "setting": "LOK", "result": 0, "unit": "%"}, {"measurement": "remaining binding at 10 µM", "setting": "FRK", "result": 10, "unit": "%"}, {"measurement": "remaining binding at 10 µM", "setting": "ULK2", "result": 39, "unit": "%"}, {"measurement": "remaining binding at 10 µM", "setting": "WEE1", "result": 74, "unit": "%"}, {"measurement": "remaining binding at 10 µM", "setting": "TEC", "result": 90, "unit": "%"}, {"measurement": "remaining binding at 10 µM", "setting": "MELK", "result": 57, "unit": "%"}, {"measurement": "remaining binding at 10 µM", "setting": "CAMKK2", "result": 60, "unit": "%"}, {"measurement": "remaining binding at 10 µM", "setting": "PIM3", "result": 23, "unit": "%"}, {"measurement": "remaining binding at 10 µM", "setting": "CSNK2A2", "result": 52, "unit": "%"}, {"measurement": "remaining binding at 10 µM", "setting": "PRKG2", "result": 40, "unit": "%"}, {"measurement": "remaining binding at 10 µM", "setting": "DDR1", "result": 39, "unit": "%"}, {"measurement": "remaining binding at 10 µM", "setting": "CSNK1G2", "result": 76, "unit": "%"}]}
